In brackets after ≈: the same amount, converted by molar mass.
Key:
Format in all cases: functional
Staphylococcus aureus [1] = assay: Antibacterial activity against Staphylococcus aureus Newman
Staphylococcus aureus [2] = assay: Antibacterial activity against gentamicin-resistant Staphylococcus aureus NRS-108
Staphylococcus aureus [3] = assay: Antibacterial activity against erythromycin-resistant Staphylococcus aureus NRS-70
Staphylococcus aureus [4] = assay: Antibacterial activity against linezolid-resistant Staphylococcus aureus NRS-271
Staphylococcus aureus [5] = assay: Antibacterial activity against oxacillin/tetracycline-resistant Staphylococcus aureus NRS-100
Staphylococcus aureus [6] = assay: Antibacterial activity against aminoglycosides/tetracycline-resistant Staphylococcus aureus NRS-1

SMILES: C#CCON=C(c1ccc(C(F)(F)F)cc1)c1cc2c(cc1C(C)C)CC[C@H]1[C@](C)(C(=O)O)CCC[C@]21C
- MIC (Staphylococcus aureus [1]): > 50 µg/mL

SMILES: CC(C)c1cc2c(cc1C(=NOCc1ccccc1)c1ccccc1)[C@@]1(C)CCC[C@@](C)(C(=O)O)[C@@H]1CC2
- MIC (Staphylococcus aureus [1]): > 50 µg/mL

SMILES: C#CCON=C(c1ccc(Cl)cc1Cl)c1cc2c(cc1C(C)C)CC[C@H]1[C@](C)(C(=O)O)CCC[C@]21C
- MIC (Staphylococcus aureus [2]): 12.5 µg/mL (≈ 23.7 µM)
- MIC (Staphylococcus aureus [3]): 1.56 to 3.13 µg/mL (≈ 2.96 to 5.94 µM)
- MIC (Staphylococcus aureus [1]): 1.56 to 3.13 µg/mL (≈ 2.96 to 5.94 µM)
- MIC (Staphylococcus aureus [4]): 12.5 to 25 µg/mL (≈ 23.7 to 47.5 µM)
- MIC (Staphylococcus aureus [5]): 12.5 to 25 µg/mL (≈ 23.7 to 47.5 µM)
- MIC (Staphylococcus aureus [6]): > 25 µg/mL

SMILES: C#CCON=C(c1cc2c(cc1C(C)C)CC[C@H]1[C@](C)(C(=O)O)CCC[C@]21C)c1ccccc1C(F)(F)F
- MIC (Staphylococcus aureus [2]): > 25 µg/mL
- MIC (Staphylococcus aureus [3]): > 25 µg/mL
- MIC (Staphylococcus aureus [1]): 1.56 to 3.13 µg/mL (≈ 2.97 to 5.95 µM)
- MIC (Staphylococcus aureus [4]): > 25 µg/mL
- MIC (Staphylococcus aureus [5]): > 25 µg/mL
- MIC (Staphylococcus aureus [6]): > 25 µg/mL

SMILES: C=CCON=C(c1cc2c(cc1C(C)C)CC[C@H]1[C@](C)(C(=O)O)CCC[C@]21C)C1CCCCC1
- MIC (Staphylococcus aureus [1]): 12.5 to 25 µg/mL (≈ 26.8 to 53.7 µM)

SMILES: CC(C)c1cc2c(cc1C(=NO)c1ccc(Cl)cc1Cl)[C@@]1(C)CCC[C@@](C)(C(=O)O)[C@@H]1CC2
- MIC (Staphylococcus aureus [2]): 1.56 to 3.13 µg/mL (≈ 3.19 to 6.41 µM)
- MIC (Staphylococcus aureus [3]): 1.56 to 3.13 µg/mL (≈ 3.19 to 6.41 µM)
- MIC (Staphylococcus aureus [1]): 1.56 to 3.13 µg/mL (≈ 3.19 to 6.41 µM)
- MIC (Staphylococcus aureus [4]): 1.56 to 3.13 µg/mL (≈ 3.19 to 6.41 µM)
- MIC (Staphylococcus aureus [5]): 3.13 µg/mL (≈ 6.41 µM)
- MIC (Staphylococcus aureus [6]): 3.13 µg/mL (≈ 6.41 µM)

SMILES: C#CCO/N=C(\C)c1cc2c(cc1C(C)C)CC[C@H]1[C@](C)(C(=O)O)CCC[C@]21C
- MIC (Staphylococcus aureus [1]): > 50 µg/mL

SMILES: CON=C(c1cc2c(cc1C(C)C)CC[C@H]1[C@](C)(C(=O)O)CCC[C@]21C)c1ccccc1C(F)(F)F
- MIC (Staphylococcus aureus [2]): 6.25 to 12.5 µg/mL (≈ 12.5 to 24.9 µM)
- MIC (Staphylococcus aureus [3]): 1.56 to 3.13 µg/mL (≈ 3.11 to 6.24 µM)
- MIC (Staphylococcus aureus [1]): 0.39 to 0.78 µg/mL (≈ 0.778 to 1.56 µM)
- MIC (Staphylococcus aureus [4]): 1.56 to 3.13 µg/mL (≈ 3.11 to 6.24 µM)
- MIC (Staphylococcus aureus [5]): 3.13 to 6.25 µg/mL (≈ 6.24 to 12.5 µM)
- MIC (Staphylococcus aureus [6]): 3.13 to 6.25 µg/mL (≈ 6.24 to 12.5 µM)

SMILES: C=CCON=C(c1ccc(C(F)(F)F)cc1)c1cc2c(cc1C(C)C)CC[C@H]1[C@](C)(C(=O)O)CCC[C@]21C
- MIC (Staphylococcus aureus [1]): > 50 µg/mL

SMILES: C/C(=N\O)c1cc2c(cc1C(C)C)CC[C@H]1[C@](C)(C(=O)O)CCC[C@]21C
- MIC (Staphylococcus aureus [1]): > 50 µg/mL

SMILES: CC(C)c1cc2c(cc1C(=NO)c1ccccc1)[C@@]1(C)CCC[C@@](C)(C(=O)O)[C@@H]1CC2
- MIC (Staphylococcus aureus [1]): 10 to 12.5 µg/mL (≈ 23.8 to 29.8 µM)

SMILES: CC(C)c1cc2c(cc1C(=NO)c1cccc(C(F)(F)F)c1)[C@@]1(C)CCC[C@@](C)(C(=O)O)[C@@H]1CC2
- MIC (Staphylococcus aureus [2]): 3.13 to 6.25 µg/mL (≈ 6.42 to 12.8 µM)
- MIC (Staphylococcus aureus [3]): 1.56 to 3.13 µg/mL (≈ 3.2 to 6.42 µM)
- MIC (Staphylococcus aureus [1]): 1.56 to 3.13 µg/mL (≈ 3.2 to 6.42 µM)
- MIC (Staphylococcus aureus [4]): 3.13 to 6.25 µg/mL (≈ 6.42 to 12.8 µM)
- MIC (Staphylococcus aureus [5]): 3.13 to 6.25 µg/mL (≈ 6.42 to 12.8 µM)
- MIC (Staphylococcus aureus [6]): 3.13 to 6.25 µg/mL (≈ 6.42 to 12.8 µM)

SMILES: C#CCON=C(CCC)c1cc2c(cc1C(C)C)CC[C@H]1[C@](C)(C(=O)O)CCC[C@]21C
- MIC (Staphylococcus aureus [1]): 15 to 20 µg/mL (≈ 35.4 to 47.2 µM)

SMILES: C=CCON=C(c1ccc(Cl)cc1Cl)c1cc2c(cc1C(C)C)CC[C@H]1[C@](C)(C(=O)O)CCC[C@]21C
- MIC (Staphylococcus aureus [2]): 12.5 µg/mL (≈ 23.7 µM)
- MIC (Staphylococcus aureus [3]): 1.56 to 3.13 µg/mL (≈ 2.95 to 5.92 µM)
- MIC (Staphylococcus aureus [1]): 1.56 to 3.13 µg/mL (≈ 2.95 to 5.92 µM)
- MIC (Staphylococcus aureus [4]): > 25 µg/mL
- MIC (Staphylococcus aureus [5]): 12.5 to 25 µg/mL (≈ 23.7 to 47.3 µM)
- MIC (Staphylococcus aureus [6]): > 25 µg/mL

SMILES: C#CCON=C(c1cc2c(cc1C(C)C)CC[C@H]1[C@](C)(C(=O)O)CCC[C@]21C)C1CCCCC1
- MIC (Staphylococcus aureus [1]): > 50 µg/mL

SMILES: C=CCON=C(CCC)c1cc2c(cc1C(C)C)CC[C@H]1[C@](C)(C(=O)O)CCC[C@]21C
- MIC (Staphylococcus aureus [1]): 10 to 12.5 µg/mL (≈ 23.5 to 29.4 µM)

SMILES: CO/N=C(/c1cc2c(cc1C(C)C)CC[C@H]1[C@](C)(C(=O)O)CCC[C@]21C)C(C)C
- MIC (Staphylococcus aureus [1]): 30 to 40 µg/mL (≈ 75.1 to 100 µM)

SMILES: C=CCO/N=C(\C)c1cc2c(cc1C(C)C)CC[C@H]1[C@](C)(C(=O)O)CCC[C@]21C
- MIC (Staphylococcus aureus [1]): 30 to 40 µg/mL (≈ 75.5 to 101 µM)

SMILES: CCCC(=NO)c1cc2c(cc1C(C)C)CC[C@H]1[C@](C)(C(=O)O)CCC[C@]21C
- MIC (Staphylococcus aureus [1]): 40 to 50 µg/mL (≈ 104 to 130 µM)

SMILES: C#CCON=C(c1cc2c(cc1C(C)C)CC[C@H]1[C@](C)(C(=O)O)CCC[C@]21C)C(C)C
- MIC (Staphylococcus aureus [1]): 10 to 12.5 µg/mL (≈ 23.6 to 29.5 µM)

SMILES: CC(C)c1cc2c(cc1C(=NO)c1cccs1)[C@@]1(C)CCC[C@@](C)(C(=O)O)[C@@H]1CC2
- MIC (Staphylococcus aureus [1]): 6.25 to 12.5 µg/mL (≈ 14.7 to 29.4 µM)

SMILES: C#CCON=C(CC)c1cc2c(cc1C(C)C)CC[C@H]1[C@](C)(C(=O)O)CCC[C@]21C
- MIC (Staphylococcus aureus [1]): 20 to 25 µg/mL (≈ 48.8 to 61 µM)

SMILES: C#CCON=C(c1ccccc1)c1cc2c(cc1C(C)C)CC[C@H]1[C@](C)(C(=O)O)CCC[C@]21C
- MIC (Staphylococcus aureus [2]): 3.13 to 6.25 µg/mL (≈ 6.84 to 13.7 µM)
- MIC (Staphylococcus aureus [3]): 1.56 to 2.5 µg/mL (≈ 3.41 to 5.46 µM)
- MIC (Staphylococcus aureus [1]): 2.5 µg/mL (≈ 5.46 µM)
- MIC (Staphylococcus aureus [4]): 3.13 to 6.25 µg/mL (≈ 6.84 to 13.7 µM)
- MIC (Staphylococcus aureus [5]): 3.13 µg/mL (≈ 6.84 µM)
- MIC (Staphylococcus aureus [6]): 6.25 to 12.5 µg/mL (≈ 13.7 to 27.3 µM)

SMILES: CON=C(c1ccc(C(F)(F)F)cc1)c1cc2c(cc1C(C)C)CC[C@H]1[C@](C)(C(=O)O)CCC[C@]21C
- MIC (Staphylococcus aureus [1]): > 50 µg/mL

SMILES: CON=C(c1cccc(C(F)(F)F)c1)c1cc2c(cc1C(C)C)CC[C@H]1[C@](C)(C(=O)O)CCC[C@]21C
- MIC (Staphylococcus aureus [2]): > 25 µg/mL
- MIC (Staphylococcus aureus [3]): > 25 µg/mL
- MIC (Staphylococcus aureus [1]): 1.56 to 3.13 µg/mL (≈ 3.11 to 6.24 µM)
- MIC (Staphylococcus aureus [4]): > 25 µg/mL
- MIC (Staphylococcus aureus [5]): > 25 µg/mL
- MIC (Staphylococcus aureus [6]): > 25 µg/mL

Reference: ChEMBL document CHEMBL3864157, “The synthesis and antistaphylococcal activity of dehydroabietic acid derivatives: Modifications at C-12” (2016)
